Test results reported in patent publication US20170304228A1, “NEW INDICATION OF CINACALCET HCL PHARMACEUTICAL COMPOSITION FOR TREATING CANCER” (LAUNX BIOMEDICAL CO., LTD., priority 2014, published 2017).
Several values for one entry are separate records, joined by “and”; a condition that tells them apart may be missing. Identical values can stand only once. Counter-ions that a name gives are not always drawn. Like-named read-outs stand apart in the source and are kept apart here.

Assays:
TSGH = assay: Cell viability analysis (WST-1), TSGH; type: cell-based; conditions: read-out: survival rate (viability) of cells
Description: (§1) The cell numbers were counted and reseed as 2×10^6 in culture plate/flask. Then, the culture medium were added to a volume of 10 ml, and the cells were cultured for 2-3 days. Then, the cells were suspended for loading into 96-well plates. The number of cells was 3000 and the volume of the culture medium was 100 μl each well.
(§2) Removing the original culture medium from 96-well plate. Then add 100 μl of commercially drug at a concentration of 10 μM per well. After 72 hours, add the diluted WST-1 reagent to the well with 100 μl/well, and the diluted WST-1 reagent was acquired from the dilution of 9:1 medium and WST-1 stock reagent. Finally, the total volume of each well was 200 μl/well. Culture the 96-well plate at 37° C. for 30 to 90 minutes. Detecting and calculate the survival rate of each cancer cells with an ELISA reader at OD450 nm. The lower viability of cancer cells represents better inhibition effect via the Cinacalcet HCl drug. Otherwise, the higher viability of cancer cells represents worse inhibition effect via the Cinacalcet HCl drug.
(§3) This inhibition test of Cinacalcet HCl on abdominal-related cancer cells were using bladder cancer cell line TSGH and T24 (Table 3), cervical cancer cell lines HeLa and C-33A (Table 4), renal cancer cell line 786-O (Table 5). The inhibitory tests of Cinacalcet HCl were performed 4 times for each cell lines and then the average value of the inhibitory tests was calculated.

HeLa = assay: Cell viability analysis (WST-1), HeLa; type: cell-based; conditions: Homo sapiens, read-out: survival rate (viability) of cells
Description: as §1, §2, §3

C-33A = assay: Cell viability analysis (WST-1), C-33A; type: cell-based; conditions: Homo sapiens, read-out: survival rate (viability) of cells
Description: as §1, §2, §3

NIH-OVCAR-3 = assay: Cell viability analysis (WST-1), NIH-OVCAR-3; type: cell-based; conditions: Homo sapiens, read-out: survival rate (viability) of cells
Description: as §1, §2
This inhibition test of Cinacalcet HCl on endocrine-related cancer cells were using prostate cancer cell lines PC-3 and LNCap (Table 6), breast cancer cell lines MCF7 and MDA-MB-231 (Table 7), and ovarian cancer cell lines NIH-OVCAR-3 and TOV-21G (Table 8). The inhibitory tests of Cinacalcet HCl were performed 4 times for each cell lines and then the average value of the inhibitory tests was calculated.

[1] = Cell viability analysis (WST-1), normal kidney cell line HEK293; type: cell-based; conditions: human, HEK293 cells (normal kidney cell line)
Description: as §1
as §2, with “Otherwise, the higher viability of cancer cells represents worse inhibition effect via the Cinacalcet HCl drug.” left out
(§4) This inhibition test of Cinacalcet HCl on normal cells were using normal kidney cell line HEK293 (Table 16), normal pulmonary epithelial cell lines […] BEAS-2B (Table 17). The inhibitory tests of Cinacalcet HCl were performed 4 times for each cell lines and then the average value of the inhibitory tests was calculated The results were shown in Tables 16 and Tables 17.

[2] = Cell viability analysis (WST-1), normal pulmonary epithelial cell line BEAS-2B; type: cell-based; conditions: human, BEAS-2B cells (normal pulmonary epithelial cell line)
From the text: Subculture the different types of cancer cells. The cancer cells includes lung cancer, gastric cancer, hepatic cancer, colon cancer, skin cancer, cervical cancer, prostate cancer, bladder cancer, breast cancer, leukemia, pancreatic cancer, ovarian cancer, tongue cancer, osteosarcoma, and renal cancer. The normal cells used in the control group included kidney cell (HEK293) and human bronchial epithelial cell line BEAS-2B (as shown in Table 1).
as §1, §2, §4

lung cancer cells = assay: Summary of cell viability, lung cancer cells; type: cell-based; conditions: 72 hours, read-out: Inhibitory effect
Description: as §1, §2
(§5) Cinacalcet HCl is having different inhibitory effect on different tumor cell type even in the same cancer. […] (FIG. 1)

prostate cancer cells = assay: Summary of cell viability, prostate cancer cells; type: cell-based; conditions: 72 hours, read-out: Inhibitory effect
Description: as §1, §2, §5

breast cancer cells = assay: Summary of cell viability, breast cancer cells; type: cell-based; conditions: 72 hours, read-out: Inhibitory effect
Description: as §1, §2, §5

hepatic cancer cells = assay: Summary of cell viability, hepatic cancer cells; type: cell-based; conditions: 72 hours, read-out: Inhibitory effect
Description: as §1, §2, §5

[3] = system: gastric cancer cells (AGS); assay: Animal model test of gastric cancer, tumor size; type: in vivo, mice
Description: In this invention, the female mice were(BALB/cAnN.Cg-Foxnl™/CrlNarl) and purchased from National Laboratory Animal Center (Taiwan). The weight of the mice were 21±1 g. These mice were subcutaneously injected with gastric cancer cells (AGS) and then put these mice into different cages at random. The drug test experiment was divided into three groups, include “control group”, “low dose group (100 mg/kg/day)”, “high dose group (200 mg/kg/day)”. These mice were then injected test drug intraperitoneally once daily […]. The tumor sizes and body weight were measured twice a week. The tumor sizes were measured and calculated by formula: (L×W^2)/2. L represents the tumor longest length. W represents the tumor shortest diameter.

[4] = average of tests, read-out: survival rate (viability) of cells
[5] = Low dose (100 mg/kg/day) intraperitoneally, First measurement, average
[6] = Low dose (100 mg/kg/day) intraperitoneally, First measurement, single mice A, B, C, hydrochloride, 100 mg/kg/day
[7] = Low dose (100 mg/kg/day) intraperitoneally, Fourth measurement, average
[8] = Low dose (100 mg/kg/day) intraperitoneally, Fourth measurement, single mice A, B, C, hydrochloride, 100 mg/kg/day
[9] = Low dose (100 mg/kg/day) intraperitoneally, Second measurement, average
[10] = Low dose (100 mg/kg/day) intraperitoneally, Second measurement, single mice A, B, C, hydrochloride, 100 mg/kg/day
[11] = Low dose (100 mg/kg/day) intraperitoneally, Third measurement, average
[12] = both low dose and high dose, FIG. 3
[13] = high dose (200 mg/kg/day) intraperitoneally, First measurement, average
[14] = high dose (200 mg/kg/day) intraperitoneally, First measurement, single mice A, B, C, hydrochloride, 200 mg/kg/day
[15] = high dose (200 mg/kg/day) intraperitoneally, Fourth measurement, average
[16] = high dose (200 mg/kg/day) intraperitoneally, Second measurement, average
[17] = high dose (200 mg/kg/day) intraperitoneally, Second measurement, single mice A, B, C, hydrochloride, 200 mg/kg/day
[18] = high dose (200 mg/kg/day) intraperitoneally, Third measurement, average
[19] = high dose (200 mg/kg/day) intraperitoneally, Third measurement, single mice A, B, C, hydrochloride, 200 mg/kg/day

## C[C@@H](NCCCc1cccc(C(F)(F)F)c1)c1cccc2ccccc12 [Cinacalcet HCl, Cinacalcet hydrochloride]
TSGH; 72 h, average of tests
  viability at 10 µM: 59.8%
TSGH; 72 hours, test 0510-10 min
  viability at 10 µM: 57.3%
TSGH; 72 hours, test 0512-10 min
  viability at 10 µM: 73.2%
TSGH; 72 hours, test 0515-10 min
  viability at 10 µM: 74.7%
TSGH; 72 hours, test 0517-10 min
  viability at 10 µM: 33.9%
HeLa; 72 h, average of tests
  viability at 10 µM: 111%
HeLa; 72 hours, test 0524-10 min
  viability at 10 µM: 110%
HeLa; 72 hours, test 0526-10 min
  viability at 10 µM: 119%
HeLa; 72 hours, test 0529-10 min
  viability at 10 µM: 104%
HeLa; 72 hours, test 0531-10 min
  viability at 10 µM: 113%
C-33A; 72 h, average of tests
  viability at 10 µM: 110%
C-33A; 72 hours, test 0524-10 min
  viability at 10 µM: 114%
C-33A; 72 hours, test 0526-10 min
  viability at 10 µM: 119%
C-33A; 72 hours, test 0529-10 min
  viability at 10 µM: 108%
C-33A; 72 hours, test 0531-10 min
  viability at 10 µM: 100%
NIH-OVCAR-3; OVCAR-3, 10 μM, 72 hours, test 7-3-30 min
  viability at 10 µM: 90.7%
NIH-OVCAR-3; OVCAR-3, 10 μM, 72 hours, test 7-4-30 min
  viability at 10 µM: 111%
NIH-OVCAR-3; OVCAR-3, 10 μM, 72 hours, test 7-7-30 min
  viability at 10 µM: 100%
NIH-OVCAR-3; OVCAR-3, 10 μM, 72 hours, test -4-30 min
  viability at 10 µM: 111%
NIH-OVCAR-3; OVCAR-3, 72 h, 10 μM, average of tests
  viability at 10 µM: 103%
[1]; [4]
  viability at 72 h, 10 µM: 114%
[1]; summary, kidney cell lines, read-out: Inhibitory effect
  viability at 72 h, 10 µM: 114%
[2]; [4]
  viability at 72 h, 10 µM: 76.1%
[2]; summary, normal pulmonary epithelial cell line, read-out: Inhibitory effect
  viability at 72 h, 10 µM: 76.1%
[2]; test 0510-10 min, read-out: survival rate (viability) of cells
  viability at 72 h, 10 µM: 70.5%
[2]; test 0512-10 min, read-out: survival rate (viability) of cells
  viability at 72 h, 10 µM: 72.9%
[2]; test 0515-10 min, read-out: survival rate (viability) of cells
  viability at 72 h, 10 µM: 72.2%
[2]; test 0517-10 min, read-out: survival rate (viability) of cells
  viability at 72 h, 10 µM: 89%
Lung cancer cells
  viability at 10 µM: 83.1%
Prostate cancer cells
  viability at 10 µM: 81.7%
Breast cancer cells
  viability at 10 µM: 108%
Hepatic cancer cells
  viability at 10 µM: 102%
[3]; [5]
  tumor volume: 592 mm3
  tumor volume growth: 592 mm3
[3]; [6]
  tumor longest length: 11 mm and 13 mm and 14 mm
  tumor width: 8 mm and 12 mm
[3]; [7]
  tumor volume: 562.1667 mm3
  tumor volume growth: −240.3333 mm3
[3]; [8]
  tumor longest length: 10 mm and 14 mm and 13 mm
  tumor width: 7 mm and 13 mm
[3]; [9]
  tumor volume: 277.5 mm3
  tumor volume growth: −314.5 mm3
[3]; [10]
  tumor longest length: 8 mm and 16 mm and 9 mm
  tumor width: 5 mm and 8 mm and 7 mm
[3]; [11]
  tumor volume: 802.5 mm3
  tumor volume growth: 525 mm3
[3]; both low dose and high dose, FIG. 2
  inhibition effect on tumor cells: significant inhibition effect
[3]; [12]
  tumor volume: can also reduce the tumor volume
  tumor volume growth: effectively slow down the tumor volume growth
[3]; [13]
  tumor volume: 81.17 mm3
  tumor volume growth: 81.17 mm3
[3]; [14]
  tumor longest length: 7 mm and 6 mm
  tumor width: 5 mm and 6 mm and 4 mm
[3]; [15]
  tumor volume: 22.33 mm3
  tumor volume growth: −56.8333 mm3
[3]; [16]
  tumor volume: 131.1667 mm3
  tumor volume growth: 50 mm3
[3]; [17]
  tumor longest length: 7 mm and 6 mm
  tumor width: 7 mm and 5 mm
[3]; [18]
  tumor volume: 79.17 mm3
  tumor volume growth: −52 mm3
[3]; high dose (200 mg/kg/day) intraperitoneally, Third measurement, single mice A, B, C
  tumor width: 5 mm
[3]; [19]
  tumor longest length: 7 mm and 6 mm
  tumor volume: 87.5 mm3 and 75 mm3
[3]; high doses, FIG. 3
  inhibition of tumor growth, high doses compared with low dose: better effect to inhibit tumor growth
